Patent US7056908B2, “Pharmaceutical compositions and methods for preventing skin tumor formation and causing regression of existing tumors” (priority 1991, dated 2006)

How the values were obtained:
[1] = test system: primary keratinocytes; assay: Cornified envelope formation in primary keratinocytes; type: cell-based, mouse; details: additional experiment, 60 nM bryostatin
Method: Cornified Envelope Quantitation. Keratinocytes were analyzed for cornified envelope formation as described (Nagae, S. et al, “Effect of retinoic acid on cornified envelope formation: difference between spontaneous envelope formation in vivo or in vitro and expression of envelope competence,” J. Invest., Dermatol., 89: 51–58, 1987), with minor modifications. Floating cells were harvested by collecting culture medium from each 60 mm dish and combining with two washes using phosphate-buffered saline without Ca^2+ and Ms^+2 (PBS). Cells were pelleted for 5 minutes at 1000 rpm in a benchtop clinical centrifuge and resuspended in 100 μl of lysis buffer (2% sodium dodecyl sulfate (SDS) and 20 mM dithiothreitol in PBS). Attached cells were harvested in 250 μl lysis buffer, combined with the preparation of floating cells, and incubated at 95° for 10 minutes. The non-solubilized, intact cornified envelopes, characteristic of terminally differentiated keratinocytes, were counted using a hemocytometer (Nagae, S. et al, “Effect of retinoic acid on cornified envelope formation: difference between spontaneous envelope formation in vivo or in vitro and expression of envelope competence,” J. Invest. Dermatol., 89: 51–58, 1987).
Floating and attached cell populations were harvested and cornified envelopes isolated. Data are mean values for three separate dishes±standard error of the mean from one experiment.
7 day old primary keratinocytes were cultured with or without 60 nM bryostatin for 15 hours. […] Each data bar is the average value from duplicate dishes with the range indicated by error bars.

[2] = test system: primary keratinocytes; type: cell-based, mouse; details: 60 nM bryostatin for 1 day
Method: EGF binding was assessed in 6-well tissue culture dishes plated at a cell density of 2.5×10^6 cells/well (Strickland, J. E. et al, “Interaction of epidermal growth factor with basal and differentiating epidermal cells of mice resistant and sensitive to carcinogenesis,” Carcinogenesis, 5: 735–740, 1984). […] A second set of cultures received, in addition, 1 μg/ml unlabelled EGF to assess non-specific binding of radioactive ligand. Following the incubation period, cultures were washed 4 times with ice-cold binding buffer, harvested in 1.5 ml lysis buffer (0.1 M tris (pH 7.4), 0.5% SDS, 1 mM EDTA), and radioactivity determined by scintillation counting.
Exposure of a variety of cultured cell types to TPA results in inhibition of EGF binding which is attributed to PKC-mediated phosphorylation of the EGF receptor (Diamond, L., “Tumor promoters and cell transformation,” In: D. Grunberger and S. P. Goff. (eds.), Mechanisms of Cellular Transformation by Carcinogenic Agents, pp. 73–133, New York: Pergamon Press. 1987).
Each point is the mean of trilpicate dishes±standard error of the mean.

CCC/C=C/C=C/C(=O)O[C@H]1/C(=C/C(=O)OC)C[C@H]2C[C@H]([C@@H](C)O)OC(=O)C[C@H](O)C[C@@H]3C[C@H](OC(C)=O)C(C)(C)[C@](O)(C[C@@H]4C/C(=C/C(=O)OC)C[C@H](/C=C/C(C)(C)[C@]1(O)O2)O4)O3 [bryostatin]
reduction of cornified envelope formation by bryostatin pre-treatment ([1]; TPA-treated cultures): 70% | reduction of cornified envelope formation by bryostatin pre-treatment ([1]; staurosporine-treated cultures): 70% | block by bryostatin pre-treatment of staurosporine-mediated inhibition of 125I-EGF binding ([2]; average over a 4 hour period): 50% | block by bryostatin pre-treatment of TPA-mediated inhibition of 125I-EGF binding ([2]; over a 4 hour period): completely blocked
